Laboratory results as given in patent US20200377481A1, “SUBSTITUTED 4-(1-PYRROLIDINYL)PYRIMIDINE COMPOUNDS AS DIMERIZATION INHIBITORS OF NEURONAL NITRIC OXIDE SYNTHASE” (Northwestern University, priority 2016, published 2020).

How the values were obtained:
iNOS = target: T1, iNOS (Mus musculus, UniProt P29477); test: iNOS Dimerization Inhibition assay (Griess, Raw 264.7 cells, LPS/IFN-γ); format: cell-based, murine
T1 construct: endogenous in cells; host or cells: Raw 264.7 cells stimulated with E. coli LPS and IFN-gamma
T1 sequence (P29477 1-1144): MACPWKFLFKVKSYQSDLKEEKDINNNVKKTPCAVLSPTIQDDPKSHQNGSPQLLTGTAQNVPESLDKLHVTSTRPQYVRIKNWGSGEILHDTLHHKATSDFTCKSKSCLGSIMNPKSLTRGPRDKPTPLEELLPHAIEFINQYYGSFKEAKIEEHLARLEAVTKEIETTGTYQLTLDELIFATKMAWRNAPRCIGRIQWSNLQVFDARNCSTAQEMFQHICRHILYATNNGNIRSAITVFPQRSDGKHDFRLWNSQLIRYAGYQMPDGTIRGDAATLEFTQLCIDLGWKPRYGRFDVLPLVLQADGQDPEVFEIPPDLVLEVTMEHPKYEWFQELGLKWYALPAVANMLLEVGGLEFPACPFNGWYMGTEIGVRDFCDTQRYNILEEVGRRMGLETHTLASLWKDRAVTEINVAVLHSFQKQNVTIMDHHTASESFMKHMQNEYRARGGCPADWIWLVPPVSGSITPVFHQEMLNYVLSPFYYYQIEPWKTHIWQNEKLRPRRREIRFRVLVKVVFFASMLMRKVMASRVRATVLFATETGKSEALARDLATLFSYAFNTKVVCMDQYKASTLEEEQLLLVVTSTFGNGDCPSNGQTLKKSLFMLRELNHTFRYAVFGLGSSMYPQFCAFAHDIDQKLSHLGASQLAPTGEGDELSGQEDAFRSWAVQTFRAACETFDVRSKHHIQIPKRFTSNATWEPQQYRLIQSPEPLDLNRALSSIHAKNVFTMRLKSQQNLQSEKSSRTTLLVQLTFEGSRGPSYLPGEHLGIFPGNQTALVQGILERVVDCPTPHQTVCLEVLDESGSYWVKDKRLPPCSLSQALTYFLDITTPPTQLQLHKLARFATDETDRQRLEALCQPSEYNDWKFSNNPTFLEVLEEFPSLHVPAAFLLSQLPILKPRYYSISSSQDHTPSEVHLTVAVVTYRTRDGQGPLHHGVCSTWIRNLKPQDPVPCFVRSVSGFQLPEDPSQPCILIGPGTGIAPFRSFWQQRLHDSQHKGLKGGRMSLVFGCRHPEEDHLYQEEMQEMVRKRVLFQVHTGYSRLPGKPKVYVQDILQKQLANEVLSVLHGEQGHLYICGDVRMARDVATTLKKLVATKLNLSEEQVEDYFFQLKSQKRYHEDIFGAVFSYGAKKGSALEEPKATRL
Description: iNOS Dimerization Inhibition assay. Raw 264.7 cells were grown to confuency in DMEM supplemented with 10% FBS and pen/strep. Cells were then plated into 96 well plates at 50,000 cells per well. After 12h of growth a serial dilution of test compound was added along with e.coli LPS (50 ug/ml final) and IFN-Y (500 ng/ml final) with a vehicle control. Compounds and cells were allowed to interact for 48 h to allow for full degradation of undrugged active dimeric species. After 48 h, 50 uL of the media from each well was removed and mixed with 50 uL Griess Reagent 1 (Promega Griess assay kit). This mixture was incubated for 5 mins and then 50 uL Reagent 2 was added. The plate was read at 530 nm and an IC50 calculated.

eNOS = target: T2, eNOS (Bos taurus, UniProt P29473); test: eNOS Dimerization Inhibition assay (Griess, Hek293 cells expressing bovine eNOS); format: cell-based
T2 construct: expressed in transfected cells; host or cells: HEK293 (stably transduced)
T2 sequence (P29473 1-1205): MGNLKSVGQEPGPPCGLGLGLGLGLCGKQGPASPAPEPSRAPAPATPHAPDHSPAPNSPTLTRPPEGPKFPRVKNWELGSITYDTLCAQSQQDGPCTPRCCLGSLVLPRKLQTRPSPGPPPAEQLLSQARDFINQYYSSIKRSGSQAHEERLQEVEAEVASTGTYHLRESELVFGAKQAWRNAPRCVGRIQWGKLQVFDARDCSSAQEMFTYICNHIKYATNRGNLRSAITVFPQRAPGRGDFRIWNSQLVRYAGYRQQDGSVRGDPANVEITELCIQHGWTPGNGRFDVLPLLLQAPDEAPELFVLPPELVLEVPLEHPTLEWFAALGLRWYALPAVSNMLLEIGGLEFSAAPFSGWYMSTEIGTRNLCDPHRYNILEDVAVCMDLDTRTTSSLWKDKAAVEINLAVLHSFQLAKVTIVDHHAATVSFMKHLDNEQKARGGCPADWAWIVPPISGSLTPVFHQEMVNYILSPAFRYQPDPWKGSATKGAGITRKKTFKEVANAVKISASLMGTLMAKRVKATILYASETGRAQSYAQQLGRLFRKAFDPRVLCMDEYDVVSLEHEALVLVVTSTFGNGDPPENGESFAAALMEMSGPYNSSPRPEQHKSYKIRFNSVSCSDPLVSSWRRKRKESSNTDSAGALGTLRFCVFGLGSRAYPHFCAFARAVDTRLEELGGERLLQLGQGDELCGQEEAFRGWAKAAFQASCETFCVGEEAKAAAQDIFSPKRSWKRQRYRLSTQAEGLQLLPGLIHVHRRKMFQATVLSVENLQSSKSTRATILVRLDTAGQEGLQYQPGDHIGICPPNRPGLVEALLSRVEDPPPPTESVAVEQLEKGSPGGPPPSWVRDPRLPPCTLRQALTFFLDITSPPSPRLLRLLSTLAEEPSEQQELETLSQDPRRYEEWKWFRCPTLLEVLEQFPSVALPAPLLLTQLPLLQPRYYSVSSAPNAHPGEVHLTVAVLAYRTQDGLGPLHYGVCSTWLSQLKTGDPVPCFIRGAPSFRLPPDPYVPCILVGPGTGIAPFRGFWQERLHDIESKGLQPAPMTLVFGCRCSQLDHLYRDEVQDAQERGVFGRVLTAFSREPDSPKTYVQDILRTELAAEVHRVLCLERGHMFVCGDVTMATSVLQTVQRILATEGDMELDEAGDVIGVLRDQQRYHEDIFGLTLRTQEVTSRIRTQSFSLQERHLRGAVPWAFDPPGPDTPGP
Description: (§1) nNOS Dimerization Inhibition assay. Hek293 cells stably transduced to express rat nNOS were grown to confuency in DMEM supplemented with 10% FBS, pen/strep and 0.4 mg/mL G418. Cells were then plated into 96 well plates at 50,000 cells per well. After 12 h of growth a serial dilution of test compound was added with a vehicle control leaving one additional lane empty as a second activator control. Compounds and cells were allowed to interact for 48 h to allow for full degradation of undrugged active dimeric species. After 48 h […] of a 10 mM calcium ionophore stock was added. After 4 h, 50 uL of the media from each well was removed and mixed with 50 uL Griess Reagent 1 (Promega Griess assay kit). This mixture was incubated for 5 mins and then 50 uL Reagent 2 was added. The plate was read at 530 nm and an IC50 calculated.
eNOS Dimerization Inhibition assay. The nNOS protocol was followed substituting Hek293 cells stably transduced to express bovine eNOS

nNOS = target: T3, nNOS (Rattus norvegicus, UniProt P29476); test: nNOS Dimerization Inhibition assay (Griess, Hek293 cells expressing rat nNOS); format: cell-based
T3 construct: expressed in transfected cells; host or cells: HEK293 (stably transduced, G418 selection)
Description: as §1

T3 sequence (P29476 whole entry): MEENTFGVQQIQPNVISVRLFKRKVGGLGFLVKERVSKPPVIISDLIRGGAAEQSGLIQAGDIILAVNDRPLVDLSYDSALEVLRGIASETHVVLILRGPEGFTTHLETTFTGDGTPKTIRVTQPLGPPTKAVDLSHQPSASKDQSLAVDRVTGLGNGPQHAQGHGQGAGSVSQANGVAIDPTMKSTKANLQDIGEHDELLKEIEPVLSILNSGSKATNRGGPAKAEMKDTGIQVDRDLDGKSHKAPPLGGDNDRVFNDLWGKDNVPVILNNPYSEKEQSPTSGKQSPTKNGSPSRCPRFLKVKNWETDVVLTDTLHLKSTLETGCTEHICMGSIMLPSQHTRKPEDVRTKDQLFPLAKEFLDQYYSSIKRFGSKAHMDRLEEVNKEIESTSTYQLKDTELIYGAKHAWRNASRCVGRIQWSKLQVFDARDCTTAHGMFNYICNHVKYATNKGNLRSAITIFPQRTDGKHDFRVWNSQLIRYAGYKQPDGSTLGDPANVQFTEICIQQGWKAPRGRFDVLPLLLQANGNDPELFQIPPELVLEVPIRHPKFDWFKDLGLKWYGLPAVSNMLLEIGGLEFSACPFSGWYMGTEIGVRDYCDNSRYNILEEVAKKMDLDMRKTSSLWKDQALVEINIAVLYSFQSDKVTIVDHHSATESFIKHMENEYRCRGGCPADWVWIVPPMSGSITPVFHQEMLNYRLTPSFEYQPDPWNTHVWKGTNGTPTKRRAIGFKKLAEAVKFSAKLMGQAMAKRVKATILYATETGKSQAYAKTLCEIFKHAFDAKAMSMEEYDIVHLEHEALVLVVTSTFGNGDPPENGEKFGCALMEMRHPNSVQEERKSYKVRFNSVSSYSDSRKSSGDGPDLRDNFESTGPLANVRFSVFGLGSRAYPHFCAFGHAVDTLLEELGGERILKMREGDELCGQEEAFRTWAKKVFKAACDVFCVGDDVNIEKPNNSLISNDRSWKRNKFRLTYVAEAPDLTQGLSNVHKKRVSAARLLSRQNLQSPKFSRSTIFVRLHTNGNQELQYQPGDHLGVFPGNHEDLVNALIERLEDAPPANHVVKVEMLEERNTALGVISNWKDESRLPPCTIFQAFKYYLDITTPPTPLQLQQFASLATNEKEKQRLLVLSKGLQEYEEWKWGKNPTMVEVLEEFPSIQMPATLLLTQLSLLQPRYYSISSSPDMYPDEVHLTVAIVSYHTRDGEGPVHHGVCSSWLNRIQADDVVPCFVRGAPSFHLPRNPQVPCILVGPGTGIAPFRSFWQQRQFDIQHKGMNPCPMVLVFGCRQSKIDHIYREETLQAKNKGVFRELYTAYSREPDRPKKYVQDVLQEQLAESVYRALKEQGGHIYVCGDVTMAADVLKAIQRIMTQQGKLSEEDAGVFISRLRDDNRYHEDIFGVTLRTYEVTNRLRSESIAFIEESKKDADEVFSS

Compound | IC50 (iNOS) [µM] | IC50 (eNOS) [µM] | IC50 (nNOS) [µM]
(R)-2-[2-(1H-imidazol-1-yl)-4-pyrimidylpyrrolidin-2-yl]-N-(4-methoxy-3-n-propylbenzyl)acetamide [Compound 4] | 4.5 | 86 | 7.4
O=C(C[C@H]1CCCN1c1ccnc(-n2ccnc2)n1)NCc1ccc2c(c1)OCO2 [Compound 1, (R)-2-[2-(1H-imidazol-1-yl)-4-pyrimidylpyrrolidin-2-yl)-N-(benzo[d][1,3]dioxo-5-ylmethyl)acetamide] | 0.1 | 18 | 0.2
(R)-2-[2-(1H-imidazol-1-yl)-4-pyrimidylpyrrolidin-2-yl]-N-(3-benzyl-4-methoxybenzyl)acetamide [Compound 5] | 6 | 55 | 14.1

Second part, the compound after the results:

IC50 (iNOS) [µM] | IC50 (eNOS) [µM] | IC50 (nNOS) [µM] | Compound
3.7 | 57 | 6.7 | CCOc1cc(CNC(=O)C[C@H]2CCCN2c2ccnc(-n3ccnc3)n2)ccc1OC [Compound 3, (R)-2-[2-(1H-imidazol-1-yl)-4-pyrimidylpyrrolidin-2-yl]-N-(3-ethoxy-4-methoxybenzy)acetamide]
0.62 | 21.1 | 0.14 | COc1ccc(CNC(=O)C[C@H]2CCCN2c2ccnc(-n3ccnc3)n2)cc1OC [Compound 2, (R)-2-[2-(1H-imidazol-1-yl)-4-pyrimidylpyrrolidin-2-yl]-N-(3,4-dimethoxybenzyl) acetamide]
